# Assay results from patent US20230287021A1, “COMPOUNDS, COMPOSITIONS AND METHODS FOR STABILIZING TRANSTHYRETIN AND INHIBITING TRANSTHYRETIN MISFOLDING” (Protego Biopharma, Inc., priority 2020, published 2023).
# Counter-ions that a name gives are not always drawn.
# Assay: In vitro rat plasma stability assay, formation of tafamidis
# Assay type: in vitro ADME
# Details: 37° C., 2 µM test compound
# Experimental: A stability assay in plasma (rat or human) was used to evaluate the ability of a compound provided herein to convert to an active TTR stabilizer. The test compound was added to plasma and incubated at 37° C. in a water bath at a concentration of 2 µM. At each time point (0, 10, 30, 60 and 120 min or 0, 60, 120, 180 and 240 min), stop solution (tolbutamide plus labetalol) was added to precipitate protein and mixed thoroughly. After centrifugation, an aliquot of supernatant was analyzed by LC-MS/MS. The percentage of formation of active agent was calculated at each time point.
row,Formation of tafamidis at 120 min,SMILES
1,B (B is ≥25 to <50%),"CC(=O)OCC(COC(C)=O)OC(=O)c1ccc2nc(-c3cc(Cl)cc(Cl)c3)oc2c1 [Compound 2, 2-(2-(3,5-Dichlorophenyl)benzo[d]oxazole-6-carbonyloxy)propane-1,3-diyl diacetate]"

# Assay: In vitro rat liver S9 stability assay, formation of tafamidis
# Assay type: in vitro ADME
# Details: rat liver S9, 37° C., 1 µM test compound
# Experimental: The test compound was added to liver S9 and incubated at 37° C. in a water bath at a concentration of 1 µM. At each time point (0, 5, 10, 20, 30 and 60 min), stop solution (tolbutamide plus labetalol) was added to precipitate protein and mixed thoroughly. After centrifugation, an aliquot of supernatant was analyzed by LC-MS/MS. The percentage of formation of active agent was calculated at each time point.
row,SMILES,Formation of tafamidis at 60 min
1,Cn1ccc(CCCOC(=O)c2ccc3nc(-c4cc(Cl)cc(Cl)c4)oc3c2)n1 [Compound 104],B (B is ≥25 to <50%)
2,O=C(OCc1ccncc1)c1ccc2nc(-c3cc(Cl)cc(Cl)c3)oc2c1 [Compound 109],C (C is ≥50 to <75%)
3,"COc1nc(C)c(COC(=O)c2ccc3nc(-c4cc(Cl)cc(Cl)c4)oc3c2)o1 [Compound 114, (2-methoxy-4-methyloxazol-5-yl)methyl 2-(3,5-dichlorophenyl)-benzo [d] oxazole-6-carboxylate]",A (A is <25%)
4,CN(C)[C@@H]1CC[C@H]1OC(=O)c1ccc2nc(-c3cc(Cl)cc(Cl)c3)oc2c1 [Compound 120],B (B is ≥25 to <50%)
5,CN1CCCC1CCOC(=O)c1ccc2nc(-c3cc(Cl)cc(Cl)c3)oc2c1 (stereo not shown) [Compound 122],A (A is <25%)
6,Cn1cc(COC(=O)c2ccc3nc(-c4cc(Cl)cc(Cl)c4)oc3c2)cn1 [Compound 128],C (C is ≥50 to <75%)
7,Cn1cnc(COC(=O)c2ccc3nc(-c4cc(Cl)cc(Cl)c4)oc3c2)c1 [Compound 129],D (D is ≥75%)
8,O=C(OCc1ccncn1)c1ccc2nc(-c3cc(Cl)cc(Cl)c3)oc2c1 [Compound 131],D (D is ≥75%)
9,O=C(OCc1cncnc1)c1ccc2nc(-c3cc(Cl)cc(Cl)c3)oc2c1 [Compound 133],C (C is ≥50 to <75%)
10,CN1CCCC1CCCOC(=O)c1ccc2nc(-c3cc(Cl)cc(Cl)c3)oc2c1 (stereo not shown) [Compound 136],A (A is <25%)
11,[2H]C([2H])([2H])N1CCC(OC(=O)c2ccc3nc(-c4cc(Cl)cc(Cl)c4)oc3c2)C1 (stereo not shown) [Compound 140],A (A is <25%)
12,CC(OC(=O)c1ccc2nc(-c3cc(Cl)cc(Cl)c3)oc2c1)c1ncccn1 (stereo not shown) [Compound 146],C (C is ≥50 to <75%)
13,O=C(OC1CCN(CCF)C1)c1ccc2nc(-c3cc(Cl)cc(Cl)c3)oc2c1 (stereo not shown) [Compound 147],B (B is ≥25 to <50%)
14,O=C(OC1CCn2ccnc21)c1ccc2nc(-c3cc(Cl)cc(Cl)c3)oc2c1 (stereo not shown) [Compound 149],D (D is ≥75%)
15,O=CN1CCC(OC(=O)c2ccc3nc(-c4cc(Cl)cc(Cl)c4)oc3c2)C1 (stereo not shown) [Compound 150],B (B is ≥25 to <50%)
16,"O=C(OC1CCCn2ccnc21)c1ccc2nc(-c3cc(Cl)cc(Cl)c3)oc2c1 (stereo not shown) [Compound 155, 5,6,7,8-tetrahydroimidazo[1,2-a]pyridin-8-yl 2-(3,5-dichlorophenyl)benzo[d]oxazole-6-carboxylate]",D (D is ≥75%)
17,CN1CC(OC(=O)c2ccc3nc(-c4cc(Cl)cc(Cl)c4)oc3c2)CCC1=O (stereo not shown) [Compound 162],B (B is ≥25 to <50%)
18,O=C(OC1CCCN(Cc2ccccc2)C1)c1ccc2nc(-c3cc(Cl)cc(Cl)c3)oc2c1 (stereo not shown) [Compound 164],B (B is ≥25 to <50%)
19,O=C(OCC1CCCN1Cc1ccccc1)c1ccc2nc(-c3cc(Cl)cc(Cl)c3)oc2c1 (stereo not shown) [Compound 165],C (C is ≥50 to <75%)
20,"CN1CC(OC(=O)c2ccc3nc(-c4cc(Cl)cc(Cl)c4)oc3c2)CC(F)(F)C1 (stereo not shown) [Compound 171, 5,5-difluoro-1-methylpiperidin-3-yl 2-(3,5-dichlorophenyl)benzo[d]oxazole-6-carboxylate]",C (C is ≥50 to <75%)
21,CN(CCF)C(=O)c1ccc2nc(-c3cc(Cl)cc(Cl)c3)oc2c1 [Compound 173],A (A is <25%)
22,CN(CC(F)F)C(=O)c1ccc2nc(-c3cc(Cl)cc(Cl)c3)oc2c1 [Compound 174],A (A is <25%)
23,O=C(OCCc1ccccc1)c1ccc2nc(-c3cc(Cl)cc(Cl)c3)oc2c1 [Compound 187],C (C is ≥50 to <75%)

# Now from value to molecule:
row,Formation of tafamidis at 60 min,SMILES
1,C (C is ≥50 to <75%),"CN(C)[C@H]1C[C@@H]1OC(=O)c1ccc2nc(-c3cc(Cl)cc(Cl)c3)oc2c1 (relative stereo) [Compound 154, trans 2-(dimethylamino)cyclopropyl 2-(3,5-dichlorophenyl)benzo-[d]oxazole-6-carboxylate hydrochloride]"
2,D (D is ≥75%),O=C(OCCc1ccccn1)c1ccc2nc(-c3cc(Cl)cc(Cl)c3)oc2c1 [Compound 105]
3,D (D is ≥75%),O=C(OCCCc1ccccn1)c1ccc2nc(-c3cc(Cl)cc(Cl)c3)oc2c1 [Compound 106]
4,D (D is ≥75%),O=C(OCc1cccnc1)c1ccc2nc(-c3cc(Cl)cc(Cl)c3)oc2c1 [Compound 107]
5,D (D is ≥75%),O=C(OCCc1cccnc1)c1ccc2nc(-c3cc(Cl)cc(Cl)c3)oc2c1 [Compound 108]
6,C (C is ≥50 to <75%),O=C(OCCc1ccncc1)c1ccc2nc(-c3cc(Cl)cc(Cl)c3)oc2c1 [Compound 110]
7,D (D is ≥75%),O=C(OCCCc1cccnc1)c1ccc2nc(-c3cc(Cl)cc(Cl)c3)oc2c1 [Compound 112]
8,D (D is ≥75%),O=C(OCCCc1ccncc1)c1ccc2nc(-c3cc(Cl)cc(Cl)c3)oc2c1 [Compound 113]
9,D (D is ≥75%),O=C(OC1CCN(C2CC2)C1)c1ccc2nc(-c3cc(Cl)cc(Cl)c3)oc2c1 (stereo not shown) [Compound 115]
10,B (B is ≥25 to <50%),CN1CC(OC(=O)c2ccc3nc(-c4cc(Cl)cc(Cl)c4)oc3c2)C1 [Compound 118]
11,A (A is <25%),CN(C)[C@H]1C[C@@H](OC(=O)c2ccc3nc(-c4cc(Cl)cc(Cl)c4)oc3c2)C1 [Compound 121]
12,C (C is ≥50 to <75%),Cn1cncc1COC(=O)c1ccc2nc(-c3cc(Cl)cc(Cl)c3)oc2c1 [Compound 123]
13,A (A is <25%),CN(C)[C@H]1C[C@H](OC(=O)c2ccc3nc(-c4cc(Cl)cc(Cl)c4)oc3c2)C1 [Compound 125]
14,A (A is <25%),CN1CCC(CCOC(=O)c2ccc3nc(-c4cc(Cl)cc(Cl)c4)oc3c2)C1 (stereo not shown) [Compound 126]
15,D (D is ≥75%),Cn1nccc1COC(=O)c1ccc2nc(-c3cc(Cl)cc(Cl)c3)oc2c1 [Compound 127]
16,D (D is ≥75%),O=C(OCc1cccnn1)c1ccc2nc(-c3cc(Cl)cc(Cl)c3)oc2c1 [Compound 130]

row,Formation of tafamidis at 60 min,SMILES
1,D (D is ≥75%),O=C(OCc1cnccn1)c1ccc2nc(-c3cc(Cl)cc(Cl)c3)oc2c1 [Compound 132]
2,A (A is <25%),CN(C)[C@H]1CCC[C@H]1OC(=O)c1ccc2nc(-c3cc(Cl)cc(Cl)c3)oc2c1 [Compound 134]
3,C (C is ≥50 to <75%),O=C(OCc1ccnnc1)c1ccc2nc(-c3cc(Cl)cc(Cl)c3)oc2c1 [Compound 135]
4,A (A is <25%),CN1CCC(CCCOC(=O)c2ccc3nc(-c4cc(Cl)cc(Cl)c4)oc3c2)C1 (stereo not shown) [Compound 137]
5,A (A is <25%),CC(=O)N1CCC(OC(=O)c2ccc3nc(-c4cc(Cl)cc(Cl)c4)oc3c2)C1 (stereo not shown) [Compound 138]
6,A (A is <25%),"C[N+]1([O-])CCC(OC(=O)c2ccc3nc(-c4cc(Cl)cc(Cl)c4)oc3c2)C1 (stereo not shown) [Compound 141, 3-((2-(3,5-dichlorophenyl)benzo[d]oxazole-6-carbonyl)oxy)-1-methylpyrrolidine 1-oxide]"
7,A (A is <25%),CC[N+]1([O-])CCC(OC(=O)c2ccc3nc(-c4cc(Cl)cc(Cl)c4)oc3c2)C1 (stereo not shown) [Compound 142]
8,D (D is ≥75%),"O=C(OCCCc1ncccn1)c1ccc2nc(-c3cc(Cl)cc(Cl)c3)oc2c1 [Compound 148, 3-(pyrimidin-2-yl)propyl 2-(3,5-dichlorophenyl)benzo[d]oxazole-6-carboxylate]"
9,A (A is <25%),[2H]C([2H])([2H])N(CCCOC(=O)c1ccc2nc(-c3cc(Cl)cc(Cl)c3)oc2c1)C([2H])([2H])[2H] [Compound 152]
10,D (D is ≥75%),"Cc1ncc2n1CCC2OC(=O)c1ccc2nc(-c3cc(Cl)cc(Cl)c3)oc2c1 (stereo not shown) [Compound 159, 3-methyl-6,7-dihydro-5H-pyrrolo[1,2-c]imidazol-7-yl 2-(3,5-dichlorophenyl)benzo[d]oxazole-6-carboxylate hydrochloride]"
11,B (B is ≥25 to <50%),"CC(Cc1cccnc1)OC(=O)c1ccc2nc(-c3cc(Cl)cc(Cl)c3)oc2c1 (stereo not shown) [Compound 168, 1-(pyridin-3-yl)propan-2-yl 2-(3,5-dichlorophenyl)benzo[d]oxazole-6-carboxylate]"
12,B (B is ≥25 to <50%),CC(Cc1ccncc1)OC(=O)c1ccc2nc(-c3cc(Cl)cc(Cl)c3)oc2c1 (stereo not shown) [Compound 169]
13,B (B is ≥25 to <50%),CCN1CCCC1COC(=O)c1ccc2nc(-c3cc(Cl)cc(Cl)c3)oc2c1 (stereo not shown) [Compound 172]
14,B (B is ≥25 to <50%),O=C(OC1CCCC1)c1ccc2nc(-c3cc(Cl)cc(Cl)c3)oc2c1 [Compound 184]
15,D (D is ≥75%),O=C(OCc1ccccc1)c1ccc2nc(-c3cc(Cl)cc(Cl)c3)oc2c1 [Compound 186]
